Laboratory results published in patent US20120283096A1, “AGENT FOR IMPROVING PLANT GROWTH, SEEDS, AND METHOD FOR IMPROVING PLANT GROWTH” (Incorporated Administrative Agency National Agricu lture …, priority 2010, published 2012).
Blank lines part the entries; values can stand above or below the molecule they belong to.

Tests used:
decay of paddy seeds = assay: Decay-inhibiting effect in tank farming without soil (Example 3); conditions: seeds covered with substance, soaked two weeks in water at 30° C.
Description: (§1) The decay-inhibiting effect of molybdenum-containing substances in tank farming without soil was examined.
(§2) The possibility of growth and the inhibition of decay were determined in the same manner as above.

barley = assay: Seedling establishment of barley seeds in humid soil (Example 6-1, FIG. 20a); type: in vivo; conditions: 0.01 mmol to 0.5 mmol molybdenum per gram of dry seed, 20° C., after two weeks
Description: (§3) As in Example 4-1, ammonium sulfate in an equivalent amount of 10 g/m^2 in terms of nitrogen and potassium chloride equivalent to 5 g/m^2 of potassium as potassium oxide were added as a solution to paddy humid soil in terms of 100 kg/m^2 of dry soil with a soil-to-liquid ratio of 0.7. The soil was placed into each container (in the shape of a cylinder approximately 7 cm in diameter) in an amount equivalent to 100 g of dry soil. The soil surface was flattened by giving it a slight press with a flat plate. Then, the soil was left at rest for one day at 4° C. […] The seeds were then half-buried in the soil. After that, at a constant temperature of 20° C., the water level was kept by adding water to such an extent that the seeds were slightly covered with water. Six containers were allotted for each condition, and the proportion of seedling establishment (proportion of individual plants that survived) was measured after two weeks. It should be noted that in each of FIGS. 20a and 20b, the horizontal axis represents the number of moles (mmol) of molybdenum that adhered per gram of dry seed. In each of FIGS. 20a and 20b, the dots correspond to the numbers of moles of 0, 0.01, 0.02, 0.05, 0.1, 0.2, and 0.5 mmol, starting from the left. […]

paddy seeds = assay: Possibility of growth of paddy seeds in tank farming without soil (Example 3); conditions: in vivo
Description: as §1, §2

wheat = assay: Seedling establishment of wheat seeds in humid soil (Example 6-1, FIG. 20b); type: in vivo; conditions: 0.01 mmol to 0.5 mmol molybdenum per gram of dry seed, 20° C., after two weeks
Description: as §3

paddy rice [1] = assay: Seedling establishment of coated paddy seeds planted in a paddy field (Example 4-5, FIG. 22); type: in vivo; conditions: dry seeds coated with clay plus 0.1 mmol/g molybdenum; kept submerged, about one month after seeding; versus WITHOUT MATERIAL and oxygen generating agent (Cal)
Description: Dry paddy seeds (branded as Hinohikari) were prepared.
Separately, dry seeds (WITHOUT MATERIAL) coated solely with clay containing no molybdenum were also prepared. Furthermore, dry seeds (Cal) coated with an oxygen generating agent (Calper Powder 16, Hodogaya UPL Co., Ltd.) the same weight per dry seeds were also prepared. Calper Powder 16 is an oxygen generating agent composed mainly of calcium peroxide.
These dry seeds were planted in puddled soil in a paddy field in Chikugo City, Fukuoka Prefecture, by using a simultaneous puddling and planting point sowing machine. By preparing the seeds as described above and planting them by using a point sowing machine, the amount of seeding per unit area of the paddy field can be substantially uniformed. It should be noted that prior to soil puddling, 4 g/m^2 of ammonium sulfate as nitrogen and potassium sulfate containing potassium equivalent to 8 g/m^2 as potassium oxide had been applied to the paddy field. After seeding, the seeds were kept submerged without draining the water.

soybean = assay: Seedling establishment of soybean seeds submerged for two days (Example 6a-1, FIG. 20e); type: in vivo; conditions: 0.01 mmol to 0.5 mmol molybdenum per gram of dry seed, 25° C., versus untreated seeds
Description: Soil was prepared in the same manner as in Example 6-1. Next, soybean seeds (branded as Fukuyutaka) not subjected to treatment such as soaking in advance were soaked for one minute in a tenfold diluted solution of a commercially available laundry starch (manufactured by Rocket Soap Co., Ltd.; My Laundry Starch) containing approximately a little less than 10% by weight of polyvinyl alcohol. Then, the seeds were spin-dried for thirty seconds in a commercially available washing machine for removal of the extra water. […] These seeds were buried so that the upper edge of each seed was at the same height as the soil surface. In an artificially-lit (amount of light 0.4 mmol/m^2/s, lit for twelve hours per day) room at 25° C., water was added immediately after seeding so that the surface water was 15 mm high. After two days, the surface water was sucked up with a pipette for removal. Six containers were allotted for each condition, and the proportion of seedling establishment (proportion of individual plants that survived) was measured two weeks after seeding. It should be noted that in FIG. 20e, the horizontal axis represents the number of moles (mmol) of molybdenum that adhered per gram of dry seed. In FIG. 20e, the dots correspond to the numbers of moles of 0 (UNTREATED), 0.01, 0.02, 0.05, 0.1, 0.2, and 0.5 mmol, starting from the left. […]

paddy rice [2] = assay: Seedling establishment of coated paddy seeds in submerged soil containers (Examples 4-1 to 4-4b, FIGS. 11, 14-19c); type: in vivo
Description: The germinated paddy seeds were soaked for one minute in a tenfold diluted solution of a commercially available laundry starch (manufactured by Rocket Soap Co., Ltd.; My Laundry Starch) containing approximately a little less than 10% by weight of polyvinyl alcohol, centrifuged at 1000 rpm for removal of the extra solution, and, immediately after that, lightly covered with different amounts of ammonium molybdophosphate, whereby seeds with different amounts of ammonium molybdophosphate were prepared.
(§4) It should also be noted that in each of FIGS. 14 through 15b, the horizontal axis represents the number of moles (mmol) of molybdenum or tungsten that adhered per gram of dry seed. In each of FIGS. 14 through 15b, the dots correspond to the numbers of moles of 0, 0.02, 0.05, 0.1, 0.2, 0.5, 1, and 2 mmol, starting from the left.
as §4, with “should” for “should also”, “16” for “14”, “18,” for “15b,”, “molybdenum” for “molybdenum or tungsten”
It should be noted that in FIG. 19a, the horizontal axis represents the number of moles (mmol) of molybdenum that adhered per gram of dry seed. In FIG. 19a, the dots correspond to the numbers of moles of 0, 0.02, 0.05, 0.1, 0.2, 0.5, 1, and 2 mmol, starting from the left.
The resulting seeds were allowed to spend time in a sufficiently wet condition so that the iron rusted, and then allowed to further spend overnight. […] Six containers were allotted for each condition, and the proportion of seedling establishment and the standard error were examined. It should be noted that in FIG. 19b, the horizontal axis represents the number of moles (mmol) of molybdenum that adhered per gram of dry seed. In FIG. 19b, the dots correspond to the numbers of moles of 0, 0.02, 0.05, 0.1, 0.2, 0.5, 1, and 2 mmol, starting from the left.
Six containers were allotted for each condition, and the proportion of seedling establishment and the standard error were examined. It should be noted that in FIG. 19c, the horizontal axis represents the actual weight ratios of 25 wt % calcium peroxide that adhered with respect to the weight of dry seed. In FIG. 19c, the dots correspond to the actual weight ratios of 25 wt % calcium peroxide of 0, 0.01, 0.02, 0.05, 0.1, 0.2, 0.5, and 1 time, starting from the left.

paddy rice [3] = assay: Effect of sulfate ions in paddy soil on seedling establishment (Example 1-1, FIG. 1); type: in vivo
Description: The effect of concentrations of sulfate ions, which serve as a substrate for sulfide ions, in the soil solution on the percentage of seedling establishment were examined for each of the following cases: unsterilized paddy soil placed at a constant temperature of 20° C.; unsterilized paddy soil placed at a constant temperature of 30° C., unsterilized paddy soil placed in an outdoor location (at a mean temperature of 25.4° C. for the duration of examination); and sterilized paddy soil placed at a constant temperature of 20° C.
First, ammonium sulfate solutions in different concentrations were added to samples of paddy humid soil (obtained from a paddy field in Chikugo City, Fukuoka Prefecture, Japan; refrigerated in the form of humid soil until just before its use) with a soil-to-liquid ratio of 1:1.5, so that the resulting supernatant liquids above the samples of soil thus adjusted had varying concentrations of sulfate ions. The amounts of ammonium sulfate added to the samples of soil were equivalent to 0, 2, 4, 7, 10, 15, and 20 g/m^2 in terms of nitrogen, respectively, on the condition that the weight of dry soil is 100 kg/m^2. At the same time as ammonium sulfate, potassium in an amount of 5 g/m^2 in terms of potassium oxide was added as potassium chloride. Before the addition of the solutions to the samples of soil, some of the soil had been sterilized by being autoclaved for one hour at 121° C.
Each of the samples of soil thus adjusted was placed into a container (in the shape of a cylinder approximately 7 cm in diameter) in an amount equivalent to 120 g of dry soil, shaken for approximately one hour, and left at rest for two days at 4° C. On this condition, the resulting soil layer was approximately 4 cm thick and the resulting water layer above the soil surface was approximately 1 cm thick. Paddy rice seeds (branded as Hinohikari) were sterilized by being soaked in 70% ethanol for ten minutes and then in a fivefold diluted solution of sodium hypochlorite (purchased from Wako Pure Chemical Industries, Ltd.) for ten minutes. The paddy rice seeds were then slightly germinated by being soaked in water at 10° C. for five days and then in water at 30° C. for two days. The germinated unhusked rice thus obtained was used in the following testing.
Nine paddy rice seeds per container were planted at a depth of 15 mm at intervals of approximately 2 cm in each of the samples of soil thus adjusted, and the seed holes were closed by lightly shaking the sample of soil. The samples of unsterilized soil were left at rest at a constant temperature of 20° C. or 30° C., and the samples of sterilized soil were left at a constant temperature of 20° C. in incubators in which fluorescent lights were on for twelve hours per day. […]

sulfide ion generation = assay: Blackening (ferric sulfide) of areas around paddy seeds versus sulfate ion concentration (FIG. 2); conditions: unsterilized soil, 30° C., one week after seeding, supernatant concentration
Description: In the same manner as above, ammonium sulfate was applied to samples of unsterilized soil in amounts of 0, 0.75, 1.5, and 3 mol/m^2, respectively, and the samples of unsterilized soil were placed at rest at a constant temperature of 30° C. The supernatant liquids obtained after shaking the samples of soil thus adjusted had sulfate ion concentrations shown in FIG. 2. However, since methylene blue decolorizes in a reduced state, methylene blue weighing 0.1% of dry soil was added to each sample of soil so that a reduced state of the soil could be detected. […] It should be noted that methylene blue is known to decolorize at an oxidation-reduction potential of 0.05 V or lower with a pH of approximately 6. […] Therefore, it is judged that in this experimental environment, an oxidation-reduction potential as normalized with a pH of 7 is at least temporarily 0 mV or lower.

Possibility of growth, Amount of molybdenum or tungsten added to seed (paddy seeds): 0.07 mmol/g
SMILES: [O]=[Mo](=[O])=[O] [Molybdenum oxide, Molybdenum oxide (VI)]
Inhibition of decay, Amount of molybdenum or tungsten added to seed (decay of paddy seeds): <0.01 mmol/g
proportion of seedling establishment (barley): improvements in proportion of seedling establishment
proportion of seedling establishment (wheat): improvements in proportion of seedling establishment
seedling establishment (paddy rice [1]): obvious improvements in seedling establishment
proportion of seedling establishment (soybean): improvements in proportion of seedling establishment
molybdenum amount leading to improvements in seedling establishment (paddy rice [2]; dry seeds coated with mixture with reduced iron (half the weight of dry seeds), 30° C., FIG. 19b): ≥ 0.5 mmol/g
proportion of seedling establishment (paddy rice [2]; dry seeds, mixture of 0.1 mmol/g molybdenum oxide and 25 wt % calcium peroxide at 0.1 or less time the weight of dry seed, 30° C.): ≥ 40%
proportion of seedling establishment (paddy rice [2]; mixture of 0.1 mmol/g molybdenum oxide and 25 wt % calcium peroxide at 0.2 to 0.5 time the weight of dry seed, versus absence of molybdenum oxide): higher proportion of seedling establishment

SMILES: N.N.O=S(=O)(O)O [sulfate ions, ammonium sulfate]
seedling establishment (paddy rice [3]; sterilized soil, 20° C., regardless of sulfate ion concentration): no decrease in seedling establishment
seedling establishment (paddy rice [3]; unsterilized soil, constant 20° C., sulfate ion concentration higher than 2 mM, after 21 days): substantially no seedling establishment
proportion of seedling establishment (paddy rice [3]; unsterilized soil, constant 30° C. or outdoor, sulfate ion concentration higher than 3 mM, after 21 days): ≤ 10%
proportion of seedling establishment (paddy rice [3]; unsterilized soil, sulfate ion concentration of 1 mM, regardless of the conditions (20° C., 30° C., outdoor), after 21 days): drastic decreases in proportion of seedling establishment
sulfate ion concentration at which a blackened portion (ferric sulfide) appears around the seed (sulfide ion generation): ≥ 0.91 mM
